Data as given in patent US20090082266A1, “CONJUGATE OF WATER-SOLUBLE HYALURONIC ACID MODIFICATION PRODUCT WITH GLP-A ANALOGUE” (priority 2005, published 2009).

Tests used:
[1] = system: BKS. Cg −+Lepr^db/+Lepr^db/Jcl mice; experiment: Oral glucose tolerance test, intravenous administration (Example 5-4); assay type: in vivo; settings: glucose 3 g/kg orally 1 minute later, AUC up to 4 hours, mean
Procedure: After 8 weeks old male BKS. Cg −+Lepr^db/+Lepr^db/Jcl mice (Japan CLEA Co. Ltd.) were fasted overnight, the HA-GLP-1 analogue 1 conjugate solution, which was obtained in Example 5-2 and diluted with solvent Z (at doses as peptide, 1.5 μg/kg, 15 μg/kg or 150 μg/kg), or solvent Z was intravenously administered to the mice. After 1 minute of the intravenous administration, 50% glucose solution (Otsuka Pharamaceutical Co. Ltd.) was orally administered at a dose of 3 g glucose/kg. […] After 1 minute of the intravenous administration, 50% glucose solution was orally administered at a dose of 3 g glucose/kg. Tests were carried out on groups consisting of 6 mice per group.
(§1) Before the glucose administration (0 hour), 0.5, 1, 2 and 4 hours after the administration, blood was collected from the tail, and the blood glucose level was measured by an enzymatic assay (hexokinase method; Reagent, Autosera S GLU (Daiichi Pure Chemicals Co. Ltd.); Instrument, BioMajesty JCA-BM1250 (JEOL Co. Ltd.)).
The blood glucose lowering rate was calculated according to the following formula.

[2] = in vivo, iv; cited from earlier work
[3] = system: BKS. Cg −+Lepr^db/+Lepr^db/Jcl mice; experiment: Oral glucose tolerance test, subcutaneous administration (Example 6-5); assay type: in vivo; settings: 3000 μg/kg sc, AUC up to 2 hours, mean
Procedure: After 8 weeks old male BKS. Cg −+Lepr^db/+Lepr^db/Jcl mice (Japan CLEA Co. Ltd.) were fasted overnight to 24 hours, the HA-GLP-1 analogue 2 conjugate solution, which was obtained in Example 6-2 and diluted with solvent Z (at a dose as peptide, 300 μg/kg), or solvent Z was subcutaneously administered to the mice. After 6, 24 or 48 hours of the subcutaneous administration, 50% glucose solution (Otsuka Pharamaceutical Co. Ltd.) was orally administered at a dose of 3 g glucose/kg. […] After 2 minutes or 4 hours and 2 minutes of the subcutaneous administration (in the case of solvent Z, after 1 or 5 hours) 50% glucose solution was orally administered at a dose of 3 g glucose/kg. Tests were carried out on groups consisting of 6 mice per group.
as §1, with “1 and” for “1,”, “2” for “2 and 4”
The blood glucose lowering rate was calculated according to the formula described in Example 5-4.

Row | Substance | Blood glucose lowering rate (%) ([1]; 150 μg/kg iv (conjugate: as peptide)) | Blood glucose lowering rate (%) ([1]; 1500 μg/kg iv) | half life [2] | Blood glucose lowering rate (%) ([3]; glucose 3 g/kg orally 2 Minutes after administration) | Blood glucose lowering rate (%) ([3]; glucose 3 g/kg orally 4 Hour 2 Minutes after administration)
1 | GLP-1: native GLP-1 (Human, 7-37; Peptide Institute, Inc.) | 15% | 60% | – | – | –
2 | GLP-1 analogue 0: variant of native GLP-1 (human, 7-37) in which the second (position 8) alanine was converted to glycine (HGEGTFTSDVSSYLEGQAAKEFIAWLVKGRG; Glucagon-like peptide 1(7-37); UniProt P01275 98-128, looked up, variant A8G) | – | – | 1 to 5 min | 102% | 18%
